Results on 25 compounds are retold here after patent publication US20040235855A1, “Phospholipase C inhibitors for use in treating inflammatory disorders” (priority 2003, published 2004).

Bounds are passed on as bounds.

For the assay, the target named is T1, human PLC-β2 (Homo sapiens, UniProt Q00722).
T1 construct: made in house; host or cells: Sf9 cells (Spodoptera frugiperda), recombinant baculovirus
T1 sequence (Q00722 whole entry): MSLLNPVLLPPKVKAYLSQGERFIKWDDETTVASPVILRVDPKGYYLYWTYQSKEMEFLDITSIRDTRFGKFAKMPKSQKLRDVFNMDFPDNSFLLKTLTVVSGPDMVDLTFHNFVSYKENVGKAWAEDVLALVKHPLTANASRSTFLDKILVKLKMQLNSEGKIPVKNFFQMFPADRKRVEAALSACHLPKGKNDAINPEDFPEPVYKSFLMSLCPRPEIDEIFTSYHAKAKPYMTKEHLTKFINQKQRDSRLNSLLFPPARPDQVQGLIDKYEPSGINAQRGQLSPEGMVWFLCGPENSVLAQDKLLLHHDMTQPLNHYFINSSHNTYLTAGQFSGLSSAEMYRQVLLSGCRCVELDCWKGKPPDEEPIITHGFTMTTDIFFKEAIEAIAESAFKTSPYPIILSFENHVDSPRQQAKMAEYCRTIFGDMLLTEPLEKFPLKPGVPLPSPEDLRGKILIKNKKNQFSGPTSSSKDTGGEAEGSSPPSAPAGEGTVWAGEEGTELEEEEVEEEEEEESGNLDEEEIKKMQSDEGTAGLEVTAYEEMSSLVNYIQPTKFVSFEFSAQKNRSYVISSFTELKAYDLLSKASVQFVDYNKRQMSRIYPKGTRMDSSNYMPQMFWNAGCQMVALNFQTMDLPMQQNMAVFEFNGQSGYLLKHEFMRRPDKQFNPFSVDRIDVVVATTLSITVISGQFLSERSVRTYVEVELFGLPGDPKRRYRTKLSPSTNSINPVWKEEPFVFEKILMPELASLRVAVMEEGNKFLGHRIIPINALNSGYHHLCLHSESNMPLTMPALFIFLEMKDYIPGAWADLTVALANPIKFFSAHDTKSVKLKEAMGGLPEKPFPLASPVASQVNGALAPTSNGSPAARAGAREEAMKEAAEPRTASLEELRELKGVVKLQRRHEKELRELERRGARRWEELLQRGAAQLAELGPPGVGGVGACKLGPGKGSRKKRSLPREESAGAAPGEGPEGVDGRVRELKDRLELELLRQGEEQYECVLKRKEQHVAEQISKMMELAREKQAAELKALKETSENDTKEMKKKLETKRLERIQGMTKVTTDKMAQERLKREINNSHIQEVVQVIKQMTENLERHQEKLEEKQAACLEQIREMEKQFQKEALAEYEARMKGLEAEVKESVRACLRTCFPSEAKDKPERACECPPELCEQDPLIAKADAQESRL
In words: PLC assay using FlashPlates (96-well, immobilized [3H]PIP2 substrate). The format is biochemical. The following applies: purified recombinant human PLC-β2 or cytosolic human PLC-β2; hydrolysis of [3H]PIP2. The text has this:
The hydrolysis of phosphatidylinositol-4,5-bisphosphate (PIP2) by a specific phospholipase C-β2 (PLC-β2) produces two intracellular messengers, diacylglycerol (DAG) and inositol 1,4,5-trisphosphate (IP3), which mediate the activation of protein kinase C and intracellular Ca^2+ release. A conventional organic solvent extraction method is widely used for PLC assays to isolate IP3 from the substrate PIP2. The conventional PLC-β2 assay, however is terminated by addition of acidified organic solvents and subsequent extraction and phase separation. […] Accordingly, a preferred method to test the compounds of the present invention, was developed utilizing a 96-well plate assay for PLC-β2 using immobilized radiolabeled substrate to quantitatively measure the reduction in the substrate level without a need for organic solvent extraction. The automated PLC-β2 assay described herein provides a convenient method for quantitative measurement of phospholipase C activities in a high throughput fashion. Ninety-six well Phospholipid FlashPlates were coated with 0.2 mL of 50 mM Tris/HCl (pH 7.4), 0.01% Ac-BSA and 50,000 cpm of […] (phosphatidylinositol-4,5-bisphosphate) at 4° C. for 72 h. The wells were aspirated and washed twice with PBS. The reactions were conducted directly in the wells in PLC reaction buffer containing 50 mM Tris/HCl (pH 7.2), 2.75 mM EDTA (pH 7.3), 80 mM KCl, 10 mM LiCl, 0.04% DOC and 2 mM CaCl2 in the absence or presence of the purified recombinant human PLC-β2 (prepared as described hereafter) or cytosolic human PLC-β2 from […]. Reduction of radioactivity was monitored by a Packard TopCount instrument (Packard Instrument Company, Conn., USA). […] The cells were grown in Grace's media supplemented with 10% (v/v) fetal bovine serum, 3.3 g/l yeastolate, 3.3 g/l lactalbumin hydrosylate, glutamine (6.4 mM final), 50 μg/ml gentamicin, and 50 μg/ml kanamycin. Suspension of Sf9 cells (1.0×10^6 cells/ml) were infected with 5 pfu/cell of recombinant baculovirus encoding PLC-β2 and incubated at 27° C. for 72 h. The cells were collected by centrifugation (500×g, 7 min, 4° C.) and disrupted by hypotonic lysis buffer containing 20 mM Tris/HCl, pH 7.4, 5 mM MgCl2, 2 mM EGTA, 200 μM PMSF, 200 μM benzamidine and 1 μM pepstatin A. The lysate was sonicated on ice and the nuclei and unbroken cells removed by centrifigation (500×g, 5 min, 4C.). The supernatant was recovered and clarified by centrifugation (34,000 rpm, 60 min, 4C.). The supernatant was used as a crude cytosolic fraction (Paterson, A., Boyer, J. L., Watts, V. J., Morris, A. J., Price, […]. (1995) Concentration of enzyme-dependent activation of PLC β1 and PLC β2 by Gα11 and βγ subunits. Cellular Signalling 7, 709-720). Crude cytosol prepared from Sf9 cells expressing PLC-β2 was purified initially by chromatography on a 10 ml column of Q-Sepharose FF, equilibrated in buffer A (25 mM HEPES, pH 7.2,2 mM DTT, 2 mM EDTA, 2 mM EGTA, 200 μM PMSF, 200 μM benzamidine, 1 μM pepstatin A containing 10 mM NaCl). The column was washed with 20 ml of equilibration buffer and eluted with a 200-ml gradient of 110-410 mM NaCl in buffer A. The fractions containing PLC activity were pooled and diluted with buffer A. The diluted enzyme was applied to a 4 ml column of heparin-SepharoseCL-6B equilibrated in buffer A and the column washed with 70 ml of buffer A. The column was eluted with 80 ml of gradient of 0-1.0 M NaCl in buffer A, the column eluate collected in 3 ml fractions. […]
Broadly, the IC50 is the concentration that gives 50% inhibition. As to `CN1CCN(C(=O)c2ccc(N3CCN(C(c4ccccc4)c4ccccc4)CC3)c(NC(=O)NC3CCCCC3)c2)CC1` [Cpd 28, N-cyclohexyl-N′-[2-[4-(diphenylmethyl)-1-piperazinyl]-5-[(4-methyl-1-piperazinyl)carbonyl]-phenyl]urea], the IC50 was 5.6 µM.

For the compound `CN(C)CCNC(=O)c1ccc(N2CCN(C(c3ccccc3)c3ccccc3)CC2)c(NC(=O)Nc2ccccc2)c1` [Cpd 29, N-[2-(dimethylamino)ethyl]-4-[4-(diphenylmethyl)-1-piperazinyl]-3-[[(phenylamino)carbonyl]amino]-benzamide], the IC50 was 3.3 µM.

On to `CN(C)CCNC(=O)c1ccc(N2CCN(C(c3ccccc3)c3ccccc3)CC2)c(NC(=O)NC2CCCCC2)c1` [Cpd 30, 3-[[(cyclohexylamino)carbonyl]amino]-N-[2-(dimethylamino)ethyl]-4-[4-(diphenylmethyl)-1-piperazinyl]-benzamide], for which the IC50 was determined as 9.8 µM.

`CN1CCCN(C(=O)c2ccc(N3CCN(C(c4ccccc4)c4ccccc4)CC3)c(NC(=O)NC3CCCCC3)c2)CC1` [Cpd 31, N-cyclohexyl-N′-[2-[4-(diphenylmethyl)-1-piperazinyl]-5-[(hexahydro-4-methyl-1H-1,4-diazepin-1-yl)carbonyl]phenyl]-urea]: the IC50 was 6.6 µM.

As to `CC(C)C[C@H](NC(=O)c1ccc(N2CCN(C(c3ccccc3)c3ccccc3)CC2)c(NC(=O)Nc2ccccc2)c1)C(=O)O` [Cpd 32, N-[4-[4-(diphenylmethyl)-1-piperazinyl]-3-[[(phenylamino)carbonyl]amino]benzoyl]-L-leucine], the IC50 was determined as 3.9 µM.

Turning to `O=C(NCc1ccccc1)Nc1cc(C(=O)N2CCNCC2)ccc1N1CCN(C(c2ccccc2)c2ccccc2)CC1` [Cpd 39, N-[2-[4-(diphenylmethyl)-1-piperazinyl]-5-(1-piperazinylcarbonyl)phenyl]-N′-(phenylmethyl)urea], the IC50 came to 4.2 µM.

`Cc1ccc(NC(=O)Nc2cc(C(=O)N3CCNCC3)ccc2N2CCN(C(c3ccccc3)c3ccccc3)CC2)c(C)c1` [Cpd 41, N-(2,4-dimethylphenyl)-N′-[2-[4-(diphenylmethyl)-1-piperazinyl]-5-(1-piperazinylcarbonyl)phenyl]-urea]: the IC50 is 1.6 µM.

`Cc1cc(C)cc(NC(=O)Nc2cc(C(=O)N3CCNCC3)ccc2N2CCN(C(c3ccccc3)c3ccccc3)CC2)c1` [Cpd 42, N-(3,5-dimethylphenyl)-N′-[2-[4-(diphenylmethyl)-1-piperazinyl]-5-(1-piperazinylcarbonyl)phenyl]-urea]: the IC50 was found to be 5.6 µM.

Consider `COc1ccc(NC(=O)Nc2cc(C(=O)N3CCNCC3)ccc2N2CCN(C(c3ccccc3)c3ccccc3)CC2)cc1` [Cpd 43, N-[2-[4-(diphenylmethyl)-1-piperazinyl]-5-(1-piperazinylcarbonyl)phenyl]-N′-(4-methoxyphenyl)urea], for which the IC50 was 5.7 µM.

Regarding `O=C(Nc1ccccc1)Nc1cc(C(=O)N2CCNCC2)ccc1N1CCN(C2c3ccccc3-c3ccccc32)CC1` [Cpd 44, N-[2-[4-(9H-fluoren-9-yl)-1-piperazinyl]-5-(1-piperazinylcarbonyl)phenyl]-N′-phenylurea], the IC50 was determined as 2.3 µM.

In the case of `O=C(Nc1cc(C(=O)N2CCNCC2)ccc1N1CCN(C(c2ccccc2)c2ccc(Cl)cc2)CC1)NC1CCCCC1` (stereo not shown) [Cpd 45, N-[2-[4-[(4-chlorophenyl)phenylmethyl]-1-piperazinyl]-5-(1-piperazinylcarbonyl)phenyl]-N′-cyclohexyl-urea], the IC50 was 2.2 µM.

Consider `O=C(Nc1ccccc1)Nc1cc(C(=O)N2CCNCC2)ccc1N1CCN(C(c2ccc(F)cc2)c2ccc(F)cc2)CC1` [Cpd 46, N-[2-[4-[bis(4-fluorophenyl)methyl]-1-piperazinyl]-5-(1-piperazinylcarbonyl)phenyl]-N′-phenylurea], for which the IC50 was 1.7 µM.

In the case of `O=C(Nc1cc(C(=O)N2CCNCC2)ccc1N1CCN(C(c2ccc(F)cc2)c2ccc(F)cc2)CC1)NC1CCCCC1` [Cpd 47, N-[2-[4-[bis(4-fluorophenyl)methyl]-1-piperazinyl]-5-(1-piperazinylcarbonyl)phenyl]-N′-cyclohexylurea], the IC50 worked out at 4.2 µM.

Turning to `CC(c1ccccc1)N1CCN(c2ccc(C(=O)N3CCNCC3)cc2NC(=O)Nc2ccccc2)CC1` (stereo not shown) [Cpd 48, N-phenyl-N′-[2-[4-(1-phenylethyl)-1-piperazinyl]-5-(1-piperazinylcarbonyl)phenyl]-urea], the IC50 was above 25 µM.

For the compound `COc1ccccc1N1CCN(c2ccc(C(=O)N3CCNCC3)cc2NC(=O)Nc2ccccc2)CC1` [Cpd 49, N-[2-[4-(2-methoxyphenyl)-1-piperazinyl]-5-(1-piperazinylcarbonyl)phenyl]-N′-phenylurea], the IC50 is above 25 µM.

For the compound `O=C(Nc1ccccc1)Nc1cc(C(=O)N2CCNCC2)ccc1N1CCN(Cc2ccccc2)CC1` [Cpd 50, N-phenyl-N′-[2-[4-(phenylmethyl)-1-piperazinyl]-5-(1-piperazinylcarbonyl)phenyl]-urea], the IC50 was above 25 µM.

As to `O=C(Nc1ccccc1)Nc1cc(C(=O)N2CCNCC2)ccc1N1CCN(C2CCCCC2)CC1` [Cpd 51, N-[2-(4-cyclohexyl-1-piperazinyl)-5-(1-piperazinylcarbonyl)phenyl]-N′-phenylurea], the IC50 was above 25 µM.

As for `O=C(Nc1cc(C(=O)N2CCNCC2)ccc1N1CCN(Cc2ccccc2)CC1)NC1CCCCC1` [Cpd 52, N-cyclohexyl-N′-[2-[4-(phenylmethyl)-1-piperazinyl]-5-(1-piperazinylcarbonyl)phenyl]-urea], the IC50 is above 25 µM.

Consider `CC(c1ccccc1)N1CCN(c2ccc(C(=O)N3CCNCC3)cc2NC(=O)NC2CCCCC2)CC1` (stereo not shown) [Cpd 53, N-cyclohexyl-N′-[2-[4-(1-phenylethyl)-1-piperazinyl]-5-(1-piperazinylcarbonyl)phenyl]-urea], for which the IC50 is above 25 µM.

Turning to `O=C(Nc1cc(C(=O)N2CCNCC2)ccc1N1CCN(C2CCCCC2)CC1)NC1CCCCC1` [Cpd 54, N-cyclohexyl-N′-[2-(4-cyclohexyl-1-piperazinyl)-5-(1-piperazinylcarbonyl)phenyl]-urea], the IC50 was above 25 µM.

With `COc1ccccc1N1CCN(c2ccc(C(=O)N3CCNCC3)cc2NC(=O)NC2CCCCC2)CC1` [Cpd 55, N-cyclohexyl-N′-[2-[4-(2-methoxyphenyl)-1-piperazinyl]-5-(1-piperazinylcarbonyl)phenyl]-urea], the IC50 is above 25 µM.

On to `CCCCNC(=O)Nc1cc(C(=O)N2CCNCC2)ccc1N1CCN(C(c2ccccc2)c2ccccc2)CC1` [Cpd 56, N-butyl-N′-[2-[4-(diphenylmethyl)-1-piperazinyl]-5-(1-piperazinylcarbonyl)phenyl]-urea], for which the IC50 is above 25 µM.

On to `O=C(Nc1ccccc1F)Nc1cc(C(=O)N2CCNCC2)ccc1N1CCN(C(c2ccccc2)c2ccccc2)CC1` [Cpd 57, N-[2-[4-(diphenylmethyl)-1-piperazinyl]-5-(1-piperazinylcarbonyl)phenyl]-N′-(2-fluorophenyl)urea], for which the IC50 stood at 2.5 µM.

Consider `CN(C)c1ccc(NC(=O)Nc2cc(C(=O)N3CCNCC3)ccc2N2CCN(C(c3ccccc3)c3ccccc3)CC2)cc1` [Cpd 58, N-[4-(dimethylamino)phenyl]-N′-[2-[4-(diphenylmethyl)-1-piperazinyl]-5-(1-piperazinylcarbonyl)phenyl]-urea], for which the IC50 amounted to 7.8 µM.

As for `COc1ccccc1NC(=O)Nc1cc(C(=O)N2CCNCC2)ccc1N1CCN(C(c2ccccc2)c2ccccc2)CC1` [Cpd 59, N-[2-[4-(diphenylmethyl)-1-piperazinyl]-5-(1-piperazinylcarbonyl)phenyl]-N′-(2-methoxyphenyl)-urea], the IC50 came to 5.4 µM.
